Test system: BLaER1 monocytes
Test: Ectopic doxycycline-inducible expression of virulence factors, IFN induction by q-RT-PCR
Type: cell-based, human
Conditions: doxycycline-inducible lentiviral expression in BLaER1 monocytes, doxycycline 24 h; gene expression by q-RT-PCR
Procedure: BLaER1, U937 and THP-1 cells were cultured in RPMI Medium 1640 supplemented with L-glutamine, sodium pyruvate, 100 U/ml penicillin-streptomycin (Thermo Fisher) and 10% (v/v) FCS (Omega Scientific). HEK293T, U2OS and HCT116 cells were cultivated in DMEM Medium (Thermo Fisher) containing the same supplements. 1.4 million BLaER1 cells per well of a 6-well plate were trans-differentiated into monocytes for 5-6 days in medium containing 10 ng/ml of hrIL-3, 10 ng/ml hr-CSF-1 (M-CSF) (both PeproTech) and 100 nM β-Estradiol (Sigma-Aldrich) as previously described. 1.4 million THP-1 and U937 cells per well of a 6-well plate were differentiated overnight with 100 ng/ml PMA (Sigma-Aldrich). STING-deficient and corresponding control THP1 and U937 cells were a gift from Dan Stetson (University of Washington). BLaER1 cells were a gift from Thomas Graf (CRG, Barcelona, Spain) and Veit Hornung (LMU Munich, Germany). U2OS cells were a gift from Robert Tjian and Xavier Darzacq (UC Berkeley). THP1 cells were from ATCC. U937 cells were from the UC Berkeley Cell Culture Facility. HCT116 cells were a gift from David Raulet (UC Berkeley). […]
Gene expression was quantified by quantitative PCR with reverse transcription (RT-qPCR). […] SYBRGreen dye (Thermo Fisher Scientific) was used for quantitative PCR assays and analyzed with a real-time PCR system (StepOnePlus; Applied Biosystems). […]

Row | Substance | IFN induction (IFN response)
1 | ICP0: key virulence factor of Herpes Simplex Virus-1, SUMO-directed E3 ubiquitin ligase; Accession No. YP_009137074.1, SEQ ID NO: 2 | led to an IFN response
2 | ICP0 D199A: predominantly nuclear variant of ICP0 | not impaired in IFN induction

Source: patent publication US20240076666A1, “Immunomodulators Targeting MORC3 for Interferon Induction” (The Regents of the University of California, priority 2021, published 2024)
